Values joined by “and” are separate entries in the source; they are usually repeats but may differ in a detail not shown here. Identical values can stand only once. Inconclusive results and toxic doses are left out. Rule as the data show it: active = T/C of 150% or more; inactive = T/C below 125%.
Tested on: L1210 leukemia ip in BDF1 mice, survival T/C
Experiment: NCI In Vivo Anticancer Drug Screen. Data for tumor model L1210 Leukemia (intraperitoneal) in B6D2F1 (BDF1) mice
Conditions: higher = longer survival
Summary of the method: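 Transplantable tumor model; survival measured in treated vs vehicle control mice. Value = treated/control.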

[1] = endpoint: mean survival time, dose: 100.0 mg/kg/injection, schedule: Q04DX003 (ip), vehicle: Klucel (hydroxypropylcellulose) (HPC)
[2] = endpoint: mean survival time, dose: 200.0 mg/kg/injection, schedule: Q04DX003 (ip), vehicle: Klucel (hydroxypropylcellulose) (HPC)
[3] = endpoint: mean survival time, dose: 100.0 mg/kg/injection, schedule: Q01DX001 (ip), vehicle: Klucel (hydroxypropylcellulose) (HPC)
[4] = endpoint: mean survival time, dose: 200.0 mg/kg/injection, schedule: Q01DX001 (ip), vehicle: Klucel (hydroxypropylcellulose) (HPC)
[5] = endpoint: mean survival time, dose: 400.0 mg/kg/injection, schedule: Q04DX003 (ip), vehicle: Klucel (hydroxypropylcellulose) (HPC)
[6] = endpoint: mean survival time, dose: 100.0 mg/kg/injection, schedule: Q01DX009 (ip), vehicle: Klucel (hydroxypropylcellulose) (HPC)
[7] = endpoint: mean survival time, dose: 200.0 mg/kg/injection, schedule: Q01DX009 (ip), vehicle: Klucel (hydroxypropylcellulose) (HPC)
[8] = endpoint: mean survival time, dose: 400.0 mg/kg/injection, schedule: Q01DX009 (ip), vehicle: Klucel (hydroxypropylcellulose) (HPC)
[9] = endpoint: mean survival time, dose: 100.0 mg/kg/injection, schedule: Q04DX003 (ip), vehicle: saline with Tween-80
[10] = endpoint: mean survival time, dose: 200.0 mg/kg/injection, schedule: Q04DX003 (ip), vehicle: saline with Tween-80
[11] = endpoint: mean survival time, dose: 400.0 mg/kg/injection, schedule: Q04DX003 (ip), vehicle: saline with Tween-80

Measured: T/C

Cc1cc(=O)oc2cc(O)ccc12
inactive: [1] 100 % of control | [2] 98 % of control

CCNc1nc2c(=O)[nH]c(N)nc2n1C1OC(CO)C(O)C1O (stereo not given)
inactive: endpoint: mean survival time, dose: 100.0 mg/kg/injection, schedule: Q01DX001 (ip), vehicle: carboxymethylcellulose (CMC) 107 % of control | endpoint: mean survival time, dose: 200.0 mg/kg/injection, schedule: Q01DX001 (ip), vehicle: carboxymethylcellulose (CMC) 96 % of control | endpoint: mean survival time, dose: 400.0 mg/kg/injection, schedule: Q01DX001 (ip), vehicle: carboxymethylcellulose (CMC) 107 % of control

O=C(Nc1cccc(CSc2nc3nc[nH]c(=O)c3[nH]2)c1)Oc1ccccc1
inactive: endpoint: mean survival time, dose: 50.0 mg/kg/injection, schedule: Q01DX001 (ip), vehicle: Klucel (hydroxypropylcellulose) (HPC) 96 % of control | [3] 91 % of control | [4] 98 % of control

Cc1cc(C)c2c(c1)CC2NC(=O)Cc1ccccc1 (stereo not given)
inactive: endpoint: mean survival time, dose: 25.0 mg/kg/injection, schedule: Q04DX002 (ip), vehicle: Klucel (hydroxypropylcellulose) (HPC) 116 % of control | endpoint: mean survival time, dose: 50.0 mg/kg/injection, schedule: Q04DX002 (ip), vehicle: Klucel (hydroxypropylcellulose) (HPC) 89 % of control | endpoint: mean survival time, dose: 100.0 mg/kg/injection, schedule: Q04DX002 (ip), vehicle: Klucel (hydroxypropylcellulose) (HPC) 92 % of control

CC12CCC3c4ccc(O)cc4CCC3C1CCC2O (stereo not given)
inactive: endpoint: mean survival time, dose: 50.0 mg/kg/injection, schedule: Q01DX001 (sc), vehicle: steriod suspending solution 105 % of control and 111 % of control | endpoint: mean survival time, dose: 100.0 mg/kg/injection, schedule: Q01DX001 (sc), vehicle: steriod suspending solution 98 % of control and 115 % of control | endpoint: mean survival time, dose: 200.0 mg/kg/injection, schedule: Q01DX001 (sc), vehicle: steriod suspending solution 98 % of control and 103 % of control | endpoint: mean survival time, dose: 400.0 mg/kg/injection, schedule: Q01DX001 (sc), vehicle: steriod suspending solution 101 % of control and 109 % of control

NC(C(=O)O)c1cccc(Cl)c1 (stereo not given)
inactive: [3] 123 % of control | [1] 100 % of control | [4] 109 % of control | [2] 91 % of control | endpoint: mean survival time, dose: 400.0 mg/kg/injection, schedule: Q01DX001 (ip), vehicle: Klucel (hydroxypropylcellulose) (HPC) 105 % of control | [5] 100 % of control

CNC(=O)Nc1ccc(OC)cc1Cl
inactive: [6] 98 % of control and 87 % of control | [7] 98 % of control | [8] 95 % of control and 90 % of control

CC(C)Nc1c(C(=O)c2ccccc2)cn(C(C)C)c1-c1ccccc1
inactive: endpoint: mean survival time, dose: 50.0 mg/kg/injection, schedule: Q01DX009 (ip), vehicle: saline with Tween-80 94 % of control | endpoint: mean survival time, dose: 100.0 mg/kg/injection, schedule: Q01DX009 (ip), vehicle: saline with Tween-80 91 % of control | endpoint: mean survival time, dose: 200.0 mg/kg/injection, schedule: Q01DX009 (ip), vehicle: saline with Tween-80 88 % of control

CCOC(N)=O
inactive: endpoint: mean survival time, dose: 27.0 mg/kg/injection, schedule: Q03HX024 (ip), vehicle: saline 97 % of control | endpoint: mean survival time, dose: 40.0 mg/kg/injection, schedule: Q03HX024 (ip), vehicle: saline 110 % of control | endpoint: mean survival time, dose: 60.0 mg/kg/injection, schedule: Q03HX024 (ip), vehicle: saline 95 % of control | endpoint: mean survival time, dose: 62.6 mg/kg/injection, schedule: Q01DX Z (ip), vehicle: carboxymethylcellulose (CMC) 106 % of control | endpoint: mean survival time, dose: 90.0 mg/kg/injection, schedule: Q03HX024 (ip), vehicle: saline 101 % of control | endpoint: mean survival time, dose: 100.0 mg/kg/injection, schedule: Q01DX009 (ip), vehicle: saline 102 % of control | endpoint: mean survival time, dose: 100.0 mg/kg/injection, schedule: Q04DX003 (ip), vehicle: saline 95 % of control | endpoint: mean survival time, dose: 120.0 mg/kg/injection, schedule: Q01DX009 (ip), vehicle: saline 98 % of control | endpoint: mean survival time, dose: 125.0 mg/kg/injection, schedule: Q01DX010 (ip), vehicle: saline 110 % of control and 87 % of control | endpoint: mean survival time, dose: 125.0 mg/kg/injection, schedule: Q01DX Z (ip), vehicle: saline 115 % of control | endpoint: mean survival time, dose: 125.25 mg/kg/injection, schedule: Q01DX Z (ip), vehicle: carboxymethylcellulose (CMC) 101 % of control | endpoint: mean survival time, dose: 135.0 mg/kg/injection, schedule: Q03HX024 (ip), vehicle: saline 110 % of control | endpoint: mean survival time, dose: 180.0 mg/kg/injection, schedule: Q01DX009 (ip), vehicle: saline 102 % of control | endpoint: mean survival time, dose: 188.0 mg/kg/injection, schedule: Q01DX Z (ip), vehicle: saline 100 % of control | endpoint: mean survival time, dose: 200.0 mg/kg/injection, schedule: Q01DX009 (ip), vehicle: saline 104 % of control | endpoint: mean survival time, dose: 200.0 mg/kg/injection, schedule: Q04DX003 (ip), vehicle: saline 101 % of control | endpoint: mean survival time, dose: 250.0 mg/kg/injection, schedule: Q01DX010 (ip), vehicle: saline 111 % of control and 112 % of control | endpoint: mean survival time, dose: 250.0 mg/kg/injection, schedule: Q01DX Z (ip), vehicle: saline 94 % of control | endpoint: mean survival time, dose: 250.5 mg/kg/injection, schedule: Q01DX Z (ip), vehicle: carboxymethylcellulose (CMC) 106 % of control | endpoint: mean survival time, dose: 266.0 mg/kg/injection, schedule: Q01DX001 (ip), vehicle: saline 100 % of control | endpoint: mean survival time, dose: 270.0 mg/kg/injection, schedule: Q01DX009 (ip), vehicle: saline 108 % of control | endpoint: mean survival time, dose: 280.0 mg/kg/injection, schedule: Q02DX010 (ip), vehicle: carboxymethylcellulose (CMC) 109 % of control | endpoint: mean survival time, dose: 375.0 mg/kg/injection, schedule: Q01DX Z (ip), vehicle: saline 110 % of control | endpoint: mean survival time, dose: 400.0 mg/kg/injection, schedule: Q01DX001 (ip), vehicle: saline 119 % of control | endpoint: mean survival time, dose: 400.0 mg/kg/injection, schedule: Q01DX009 (ip), vehicle: saline 107 % of control and 110 % of control | endpoint: mean survival time, dose: 400.0 mg/kg/injection, schedule: Q04DX003 (ip), vehicle: saline 100 % of control | endpoint: mean survival time, dose: 500.0 mg/kg/injection, schedule: Q01DX010 (ip), vehicle: saline 123 % of control | endpoint: mean survival time, dose: 500.0 mg/kg/injection, schedule: Q01DX Z (ip), vehicle: saline 105 % of control | endpoint: mean survival time, dose: 501.0 mg/kg/injection, schedule: Q01DX Z (ip), vehicle: carboxymethylcellulose (CMC) 108 % of control | endpoint: mean survival time, dose: 600.0 mg/kg/injection, schedule: Q01DX001 (ip), vehicle: saline 121 % of control | endpoint: mean survival time, dose: 600.0 mg/kg/injection, schedule: Q01DX009 (ip), vehicle: saline 98 % of control | endpoint: mean survival time, dose: 750.0 mg/kg/injection, schedule: Q01DX Z (ip), vehicle: saline 103 % of control | endpoint: mean survival time, dose: 1000.0 mg/kg/injection, schedule: Q01DX010 (ip), vehicle: saline 94 % of control | endpoint: mean survival time, dose: 1000.0 mg/kg/injection, schedule: Q01DX Z (ip), vehicle: saline 105 % of control | endpoint: mean survival time, dose: 1074.0 mg/kg/injection, schedule: Q01DX001 (ip), vehicle: saline 115 % of control | endpoint: median survival time, dose: 125.0 mg/kg/injection, schedule: Q01DX009 (ip), vehicle: saline 100 % of control | endpoint: median survival time, dose: 250.0 mg/kg/injection, schedule: Q01DX009 (ip), vehicle: saline 100 % of control | endpoint: median survival time, dose: 500.0 mg/kg/injection, schedule: Q01DX009 (ip), vehicle: saline 100 % of control and 110 % of control | endpoint: median survival time, dose: 1000.0 mg/kg/injection, schedule: Q01DX009 (ip), vehicle: saline 87 % of control

O=C(NCc1ccccc1)C1C2C=CC(C2)C1C(=O)NCc1ccccc1 (stereo not given)
inactive: [9] 96 % of control | [10] 91 % of control | [11] 91 % of control

CC(=O)Nc1ccc(NC(=O)Nc2cccc(C(F)(F)F)c2)cc1
inactive: [6] 94 % of control | [7] 87 % of control

CCOC(=O)CCCC(=O)N(CC(=O)OCC)Cc1ccccc1
inactive: [9] 102 % of control | [10] 93 % of control | [11] 90 % of control

Cc1cc(C)c2c(c1)CCc1cc(C)cc(C)c1-2
inactive: [6] 100 % of control | [1] 93 % of control | [7] 93 % of control | [2] 93 % of control | [8] 100 % of control | [5] 93 % of control
